In patent US20250208149A1, “WEE1 COMPOUND FOR TREATING UTERINE SEROUS CARCINOMA” (Recurium IP Holdings, LLC, priority 2022, published 2025):
“Also recorded” adds a separate entry of the source.

Key:
Assay type in all cases: cell-based
[1] = test system: OV17R ovarian cancer cells; assay: Percent inhibition of cell growth, ZN-c3, LB-100 or ZN-c3+LB-100 (cell titer glow); details: OV17R (PPP2R1A S256F), 72 hours; ZN-c3 75 nM, LB-100 1 μM
Protocol: FIG. 19 depicts the percent inhibition of cell growth in OV17R ovarian cancer cells after treatment with ZN-c3 alone, the PP2A catalytic inhibitor LB-100 alone, or the combination of ZN-c3+LB-100. OV17R has the PPP2R1A missense mutation S256F. Percent inhibition is calculated using cell titer glow analysis.
(§1) Following observations that both knockdown and knockout of PPP2R1A could sensitize cancer cells to Zn-C3, the effects of pharmacological inhibition of PPP2R1A with the catalytic inhibitor LB-100 were evaluated. Various cancer cell lines were treated with ZN-c3 alone, the PP2A catalytic inhibitor LB-100 alone, or the combination of ZN-c3+LB-100. As in Example 1 and Example 2, the treatment period was 72 hours and percent inhibition was calculated using cell titer glow analysis.
The ovarian cancer cell line OV17R was assessed for sensitivity to ZN-c3 alone, LB-100 alone, or the combination of ZN-c3+LB-100 (FIG. 19).

SKOV3 cells = assay: ZN-c3 dose response, percent cell density (cell titer glow), PPP2R1A siRNA vs scrambled control; details: Homo sapiens, SK-OV-3, 72 h
Protocol: FIG. 9 depicts the percent cell density of SKOV3 (an ovarian cancer cell line) cells after treatment with a 10-point dose response of ZN-c3 for 72 hours, comparing cells transfected with siRNA to PPP2R1A against those transfected with a scrambled control siRNA. Percent cell density is calculated using cell titer glow analysis. PPP2R1A siRNA transfected cells have approximately 2.7-fold increase in sensitivity to ZN-c3 (TABLE 5).
The effect of PPP2R1A knockdown on influencing cancer cell susceptibility to ZN-c3 was evaluated. Various cancer cell lines were transfected with PPP2R1A siRNA or control scrambled siRNA and the cells were treated with a 10 point dose response of ZN-c3 for 72 hours. Percent cell density was calculated using cell titer glow analysis. The PPP2R1A siRNA targeted the following bases Chr.19: 52189802-52226425. SiRNA transfection was started 48 hours prior to treatment with ZN-c3. The ZN-c3 dose response evaluation included ZN-c3 dosages at […].
An ovarian cell line SKOV3 was treated with PPP2R1A siRNA or control siRNA and transfected cells were assessed for sensitivity to ZN-c3 by measurement of reduction in percent cell density (FIG. 9). PPP2R1A siRNA mediated knockdown of PPP2R1A was evaluated by comparison of PPP2R1A expression in conditions treated with siCTRL and siPPPR12A (FIG. 10).

[2] = test system: OV17R ovarian cancer cells; assay: ZN-c3 dose response, percent cell density (cell titer glow)
Protocol: FIG. 17 depicts the percent cell density of OV17R ovarian cancer cells after treatment with a 10-point dose response of ZN-c3 for 72 hours. OV17R has the S256F hotspot missense mutation in PPP2R1A. […] Percent cell density is calculated using cell titer glow analysis.
Having observed that siRNA mediated knockdown of PPP2R1A sensitized cancer cell lines to treatment with ZN-c3, it was also of interest to evaluate if CRISPR mediated PPP2R1A knockout produced a similar effect. Various cancer cell lines were transfected with a CRISPR guide RNA targeting PPP2R1A or nontargeting guide RNA and the cells were treated with a 10-point dose response of ZN-c3 for 72 hours. The 10-point dose response to ZN-c3 included the same dosages used in Example 1. As in Example 1, no media change was performed during the 72-hour ZN-c3 dose response evaluation period. Fewer than 20 cell passages were completed between the CRISPR mediated knockout and ZN-c3 treatment. CRISPR was performed by targeting PPP2R1A with a PPP2R1A sgRNA sequence. Percent cell density was calculated using cell titer glow analysis.
The ovarian cancer cell line OV17R was assessed for sensitivity to ZN-c3 by measurement of reduction in percent cell density (FIG. 17).

[3] = test system: HEC1B endometrial cancer cells; assay: Percent inhibition of cell growth, ZN-c3, LB-100 or ZN-c3+LB-100 after siCTRL or siPPP2R1A (cell titer glow); details: HEC1B, 72 hours, ZN-c3 200 nM, LB-100 1 μM
Protocol: FIG. 21 depicts the percent inhibition of cell growth in HEC1B endometrial cancer cells after treatment with ZN-c3 alone, the PP2A catalytic inhibitor LB-100 alone, or the combination of ZN-c3+LB-100 after siRNA mediated knockdown of PPP2R1A. […] Percent inhibition is calculated using cell titer glow analysis.
as §1
The endometrial cancer cell line HEC1B was also assessed for sensitivity to ZN-c3 alone, LB-100 alone, or the combination of ZN-c3+LB-100 following treatment with siCTRL or siPPP2R1A (FIG. 21).

EC50 (SKOV3 cells; siCTRL): 480 nM
EC50 (SKOV3 cells; siPPP2R1A): 180 nM
EC50 ([2]; OV17R cells (PPP2R1A S256F), 72 hours): 139 nM
SMILES: C=CCn1c(=O)c2cnc(Nc3ccc(N4CCN(C)CC4)cc3)nc2n1-c1ccc2c(n1)[C@@](O)(CC)CC2 [ZN-c3, (R)-2-allyl-1-(7-ethyl-7-hydroxy-6,7-dihydro-5H-cyclopenta[b]pyridin-2-yl)-6-((4-(4-methylpiperazin-1-yl)phenyl)amino)-1,2-dihydro-3H-pyrazolo[3,4-d]pyrimidin-3-one]
percent inhibition of cell growth [1]: approximately 30%
sensitivity of cell line to ZN-c3 treatment ([2]; OV17R cells (PPP2R1A S256F hotspot missense mutation)): highly susceptible; also recorded: highly sensitive
percent inhibition of cell growth ([3]; siCTRL): approximately 30%
percent inhibition in siPPP2R1A treated cells compared to siCTRL treated cells ([3]; siPPP2R1A): approximately the same
